Measured values published in patent publication US12037345B2, “Heterobicyclic compounds for inhibiting the activity of SHP2” (TAIHO PHARMACEUTICAL CO., LTD., priority 2018, dated 2024).
pIC50: −log10 of the molar value. Where a name gives a salt, the structure may show the parent alone.

target: SHP2 (Homo sapiens (Human), UniProt Q06124); test: SHP2 Biochemical Assay (DiFMUP conversion, pIRS1-activated); details: Table 19; head prints unit as "-M"
Procedure: SHP2 activity was monitored by measuring the conversion of the surrogate substrate 6,8-difluoromethylumbelliferyl phosphate (DiFMUP) to the fluorescent product, 6,8-difluoromethylumbelliferone (DiFMU).
SHP2 was pre-incubated with test compounds and the activating peptide pIRS1 (H2N-LN(pY)IDLDLV-(PEG)8-LST(pY)ASINFQK-amide) for 30 min, prior to addition of the 6,8-difluoromethylumbelliferyl phosphate (DiFMUP), (Thermo Fisher D6567). Final assay concentrations were 10 pM SHP2, […] pIRS1 peptide, 50 μM DiFMUP, 25 mM Bis-Tris propane, pH 7.0, 150 mM NaCl, 0.05% (v/v) Tween-20, 0.5 mM TCEP and 5% (v/v) DMSO. Rates of reaction were then measured over 30 min by monitoring fluorescence on a BMG Pherastar reader at excitation 360 nm/emission 450 nm. IC50 values were calculated in singlicate from the normalized dose-response plots using four parameter logistic curve fit. The Experiment for each compound was carried out in one time or multiple times, and the IC50 values were shown as a single value (for a compound measured in a single experiment) or an average value (for a compound measured in multiple experiments).

pIC50 | SMILES
8.40 | CCn1cc2c(Cl)c(-c3c[nH]c4nc(N5C[C@H]6CC[C@@H]5[C@@H]6N)n(C)c(=O)c34)ccc2n1 (stereo in doubt) [Example 155, rel-2-((1R,4R,7R)-7-amino-2-azabicyclo[2.2.1]heptan-2-yl)-5-(4-chloro-2-ethyl-2H-indazol-5-yl)-3-methyl-3,7-dihydro-4H-pyrrolo[2,3-d]pyrimidin-4-one]
6.54 | Cn1cc2c(Cl)c(-c3n[nH]c4nc(N5[C@@H]6CC[C@H]5[C@H](F)[C@@H](N)C6)n(C)c(=O)c34)ccc2n1 [Example 149, 6-[(1S,2R,3S,5R)-3-Amino-2-fluoro-8-azabicyclo[3.2.1]octan-8-yl]-3-(4-chloro-2-methyl-2H-indazol-5-yl)-5-methyl-1H,4H,5H-pyrazolo[3,4-d]pyrimidin-4-one]
6.46 | Cn1cc2c(Cl)c(-c3c[nH]c4nc(N5CCN[C@H](CO)C5)n(C)c(=O)c34)ccc2n1 [Example 19, (S)-5-(4-chloro-2-methyl-2H-indazol-5-yl)-2-(3-(hydroxymethyl)piperazin-1-yl)-3-methyl-3,7-dihydro-4H-pyrrolo[2,3-d]pyrimidin-4-one]
7.11 | Cn1cc2c(Cl)c(-c3c[nH]c4nc(N5CCC6(CCN6)CC5)n(C)c(=O)c34)ccc2n1 [Example 42, 5-(4-chloro-2-methyl-2H-indazol-5-yl)-3-methyl-2-(1,7-diazaspiro[3.5]nonan-7-yl)-3,7-dihydro-4H-pyrrolo[2,3-d]pyrimidin-4-one]
6.12 | Cn1cc2c(Cl)c(-c3c[nH]c4nc(N5CCN[C@H](CCO)C5)n(C)c(=O)c34)ccc2n1 [Example 20, (R)-5-(4-chloro-2-methyl-2H-indazol-5-yl)-2-(3-(2-hydroxyethyl)piperazin-1-yl)-3-methyl-3,7-dihydro-4H-pyrrolo[2,3-d]pyrimidin-4-one]
6.64 | C[C@@H]1CN(c2nc3[nH]cc(-c4ccc5nn(C)cc5c4Cl)c3c(=O)n2C)CCN1 [Example 18, (R)-5-(4-chloro-2-methyl-2H-indazol-5-yl)-3-methyl-2-(3-methylpiperazin-1-yl)-3,7-dihydro-4H-pyrrolo[2,3-d]pyrimidin-4-one]

SMILES | pIC50
Cn1cc2c(Cl)c(-c3n[nH]c4nc(N5CC6COCC(C5)N6)n(C)c(=O)c34)ccc2n1 [Example 145, 3-(4-chloro-2-methyl-2H-indazol-5-yl)-5-methyl-6-{3-oxa-7,9-diazabicyclo[3.3.1]nonan-7-yl}-1H,4H,5H-pyrazolo[3,4-d]pyrimidin-4-one] | 6.82

same assay, conditions: Table 20

SMILES | pIC50
Cn1cc2c(Cl)c(-c3c[nH]c4nc(N5[C@@H]6CC[C@H]5C[C@](N)(C(F)F)C6)n(C)c(=O)c34)ccc2n1 [Example 185, 2-[(endo)-3-amino-3-(difluoromethyl)-8-azabicyclo[3.2.1]octan-8-yl]-5-(4-chloro-2-methyl-2H-indazol-5-yl)-3-methyl-3H,4H,7H-pyrrolo[2,3-d]pyrimidin-4-one hydrochloride] | 6.74
CCn1cc2ccc(-c3c[nH]c4nc(N5CCC6(CC5)COC[C@H]6N)n(C)c(=O)c34)cc2n1 [Example 183, 2-[(4S)-4-amino-2-oxa-8-azaspiro[4.5]decan-8-yl]-5-(2-ethyl-2H-indazol-6-yl)-3-methyl-3H,4H,7H-pyrrolo[2,3-d]pyrimidin-4-one hydrochloride] | 6.85
CCn1cc2c(Cl)c(-c3c[nH]c4nc(N5CCC6(CNC6)C5)n(C)c(=O)c34)ccc2n1 (racemic) [Example 196, rac-5-(4-chloro-2-ethyl-2H-indazol-5-yl)-2-{2,6-diazaspiro[3.4]octan-6-yl}-3-methyl-3H,4H,7H-pyrrolo[2,3-d]pyrimidin-4-one] | 7.49
Cn1nc2c(Cl)cc(-c3c[nH]c4nc(N5[C@H]6CC[C@@H]5[C@@H](N)C6)n(C)c(=O)c34)c(Cl)c2c1Cl [Example 168, 2-((1R,2S,4S)-2-amino-7-azabicyclo[2.2.1]heptan-7-yl)-3-methyl-5-(3,4,7-trichloro-2-methyl-2H-indazol-5-yl)-3,7-dihydro-4H-pyrrolo[2,3-d]pyrimidin-4-one] | 8.15
CCn1cc2c(Cl)c(-c3c[nH]c4nc(N5CC6CNCC5C6)n(C)c(=O)c34)ccc2n1 (single isomer, unassigned) [Example 193, 5-(4-chloro-2-ethyl-2H-indazol-5-yl)-2-{3,6-diazabicyclo[3.2.1]octan-6-yl}-3-methyl-3H,4H,7H-pyrrolo[2,3-d]pyrimidin-4-one hydrochloride] | 6.59
CCn1cc2cc(-c3c[nH]c4nc(N5CCC6(CC5)COC[C@H]6N)n(C)c(=O)c34)cc(F)c2n1 [Example 186, 2-[(4S)-4-amino-2-oxa-8-azaspiro[4.5]decan-8-yl]-5-(2-ethyl-7-fluoro-2H-indazol-5-yl)-3-methyl-3H,4H,7H-pyrrolo[2,3-d]pyrimidin-4-one hydrochloride] | 7.44
Cn1nc2ccc(-c3c[nH]c4nc(N5[C@H]6CC[C@@H]5[C@@H](N)C6)n(C)c(=O)c34)c(Cl)c2c1Cl [Example 166, 2-((1R,2S,4S)-2-amino-7-azabicyclo[2.2.1]heptan-7-yl)-5-(3,4-dichloro-2-methyl-2H-indazol-5-yl)-3-methyl-3,7-dihydro-4H-pyrrolo[2,3-d]pyrimidin-4-one] | 7.28
Cn1nc2ccc(-c3c[nH]c4nc(N5[C@H]6CC[C@@H]5[C@H](N)C6)n(C)c(=O)c34)cc2c1Cl [Example 167, 2-((1R,2R,4S)-2-amino-7-azabicyclo[2.2.1]heptan-7-yl)-5-(3-chloro-2-methyl-2H-indazol-5-yl)-3-methyl-3,7-dihydro-4H-pyrrolo[2,3-d]pyrimidin-4-one] | 7.89

tested on: pERK (phospho-p44/42 ERK) in HCC827 cells; test: Cellular pERK Inhibition Assay, Method A (In-Cell Western); type: cell-based; details: Homo sapiens, Table 19, head prints unit as "-M", read-out: pERK (IC50) Method A
Procedure: Cellular pERK Inhibition Assay
pERK levels were determined using the In-Cell Western assay. HCC827 cells (ATCC, Manassas, USA) were seeded into 384-well plates at a density of 1×10^4 cells/well in RPMI1640 medium supplemented with 10% FBS and incubated 24h. Compounds were diluted first in DMSO and then into serum-free medium, before being added to cells in quadruplicate to give a final concentration of 0.2% DMSO. Plates were incubated at 37° C. for the indicated time in a humidified atmosphere of 5% CO2 in air.
Following compound treatment, cells were fixed with formalin neutral buffer solution for 20 minutes at room temperature. Plates were washed three times with 0.1% Triton-X in PBS and cells were blocked for 1 hour with Odyssey blocking buffer (LI-COR, #927-40000). After shaking out blocking buffer, cells were incubated with phospho-p44/42 ERK antibody (Cell Signalling Technology, #4370, 1:200) diluted in Odyssey blocking buffer at 4° C. overnight. Plates were washed again and cells were incubated for 1 hour with Goat anti-Rabbit […] (LI-COR, #926-32211, 1:800) diluted in Odyssey blocking buffer. After washing and removing wash solution completely using a centrifuge machine, cells were scanned on the Odyssey (LI-COR), following the manufacturer's instructions. The average signal from blank wells (no cells added) was subtracted from the signals from each sample well. Levels of pERK were then expressed as percent of control, using DMSO treated samples as control. The relative IC50 values were calculated in quadruplicate from the normalized dose-response plots using four parameter logistic curve fit. The Experiment for each compound was carried out in one time or multiple times, and the IC50 values were shown as a single value (for a compound measured in a single experiment) or an average value (for a compound measured in multiple experiments).

SMILES | pIC50
CCn1cc2c(Cl)c(-c3c[nH]c4nc(N5C[C@@H]6CC[C@H]5[C@H]6N)n(C)c(=O)c34)ccc2n1 (stereo in doubt) [Example 133, rac-2-((1S,4S,7S)-7-amino-2-azabicyclo[2.2.1]heptan-2-yl)-5-(4-chloro-2-ethyl-2H-indazol-5-yl)-3-methyl-3,7-dihydro-4H-pyrrolo[2,3-d]pyrimidin-4-one] | 7.34
Cn1nc2ccc(-c3c[nH]c4nc(N5[C@H]6CC[C@@H]5[C@H](N)C6)n(C)c(=O)c34)c(F)c2c1Cl [Example 96, 2-((1R,2R,4S)-2-amino-7-azabicyclo[2.2.1]heptan-7-yl)-5-(3-chloro-4-fluoro-2-methyl-2H-indazol-5-yl)-3-methyl-3,7-dihydro-4H-pyrrolo[2,3-d]pyrimidin-4-one] | 7.52
CCn1cc2c(Cl)c(-c3c[nH]c4nc(N5[C@H]6CC[C@@H]5[C@H](N)C6)n(C)c(=O)c34)ccc2n1 [Example 92, 2-((1R,2R,4S)-2-amino-7-azabicyclo[2.2.1]heptan-7-yl)-5-(4-chloro-2-ethyl-2H-indazol-5-yl)-3-methyl-3,7-dihydro-4H-pyrrolo[2,3-d]pyrimidin-4-one] | 7.49
Cn1nc2ccc(-c3c[nH]c4nc(N5[C@H]6CC[C@@H]5[C@H](N)C6)n(C)c(=O)c34)c(Cl)c2c1Cl [Example 93, 2-((1R,2R,4S)-2-amino-7-azabicyclo[2.2.1]heptan-7-yl)-5-(3,4-dichloro-2-methyl-2H-indazol-5-yl)-3-methyl-3,7-dihydro-4H-pyrrolo[2,3-d]pyrimidin-4-one] | 7.68
Cn1c(N2[C@H]3CC[C@@H]2[C@H](N)C3)nc2[nH]cc(-c3ccc4ncsc4c3Cl)c2c1=O [Example 101, 2-((1R,2R,4S)-2-amino-7-azabicyclo[2.2.1]heptan-7-yl)-5-(7-chlorobenzo[d]thiazol-6-yl)-3-methyl-3,7-dihydro-4H-pyrrolo[2,3-d]pyrimidin-4-one] | 7.34

same assay, conditions: Homo sapiens, Table 20, read-out: pERK (IC50, μM) Method A

IC50 | SMILES
0.02 µM | Cn1nc2ccc(-c3n[nH]c4nc(N5C[C@H]6CC[C@@H]5[C@@H]6N)n(C)c(=O)c34)c(Cl)c2c1Cl [Example 171, 6-((1R,4R,7R)-7-amino-2-azabicyclo[2.2.1]heptan-2-yl)-3-(3,4-dichloro-2-methyl-2H-indazol-5-yl)-5-methyl-1,5-dihydro-4H-pyrazolo[3,4-d]pyrimidin-4-one]
